Legend:
Saccharomyces cerevisiae [1] = experiment: In vitro inhibitory activity of Beta-1,3-glucan synthase of Saccharomyces cerevisiae at concentration of 25 ug/ml
Saccharomyces cerevisiae [2] = experiment: In vitro inhibitory activity of Beta-1,3-glucan synthase of Saccharomyces cerevisiae at concentration of 200 ug/ml
Saccharomyces cerevisiae [3] = experiment: In vitro inhibitory activity of Beta-1,3-glucan synthase of Saccharomyces cerevisiae at concentration of 50 ug/ml
Saccharomyces cerevisiae [4] = experiment: In vitro inhibitory activity of Beta-1,3-glucan synthase of Saccharomyces cerevisiae at concentration of 100 ug/ml
Saccharomyces cerevisiae [5] = experiment: In vitro inhibitory activity of Beta-1,3-glucan synthase of Saccharomyces cerevisiae at concentration of 400 ug/ml
Saccharomyces cerevisiae [6] = experiment: In vitro inhibitory activity of Beta-1,3-glucan synthase of Saccharomyces cerevisiae at concentration of 12.5 ug/ml
Saccharomyces cerevisiae [7] = experiment: In vitro inhibitory activity of Beta-1,3-glucan synthase of Saccharomyces cerevisiae at concentration of 800 ug/ml
Phytophthora capsici = experiment: Minimum amount required to induce hyphal malformation in Phytophthora capsici; type: functional

Row | SMILES | inhibition (Saccharomyces cerevisiae [1]) [%] | inhibition (Saccharomyces cerevisiae [2]) [%] | inhibition (Saccharomyces cerevisiae [3]) [%] | inhibition (Saccharomyces cerevisiae [4]) [%] | inhibition (Saccharomyces cerevisiae [5]) [%] | inhibition (Saccharomyces cerevisiae [6]) [%] | inhibition (Saccharomyces cerevisiae [7]) [%] | Activity (Phytophthora capsici) [ug disk-1]
1 | C[C@H]1C(=O)C(CO)=C[C@H](O)[C@H]1O | 30 | 75 | 47 | 66 | 85 | 12 | 91 | 100
2 | C[C@H]1CCC/C=C/[C@@H]2C[C@H](O)C[C@H]2[C@H](O)/C=C/C(=O)O1 [BREFELDIN A] | 0 | 0 | 0 | 0 | 6 | 0 | 0 | 50
3 | CC(C)=C[C@H]1C[C@H](C)[C@]2(CC[C@]3(C)C[C@H]4[C@H](C(=O)C[C@@]4(C)O)/C(C=O)=C\C[C@H]32)O1 [OPHIOBOLIN A] | 56 | 79 | 56 | 74 | 84 | 31 | 89 | 10

Reference: ChEMBL document CHEMBL1151038, “-Glucan biosynthesis inhibitors isolated from fungi as hyphal malformation inducer” (1993)
